Results as given in patent publication US20150037397A1, “PHARMACEUTICAL COMPOSITIONS OF PYRIDINIUM AND QUINOLINIUM DERIVATIVES” (TRASLATIONAL CANCER DRUGS PHARMA, S.L., priority 2010, published 2015).

How the values were obtained:
[1] = Chemical stability of TCD717 in solution under stress conditions; type: physicochemical
Description: The chemical stability of TCD717 (compound No. 6, Q=Br) in solution (which comprises MeOH/water 3:1 v/v and additional stress elements, as indicated in the Table) under various stress conditions is provided in the following Table.

[2] = pH solubility profiling in Titrisol buffers (HPLC after filtration); type: physicochemical; conditions: 24 h, room temperature
Experimental: The pH solubility profile of compound TCD717 (compound No. 6, Q=Br) was assessed at pH 2-8. […] The TCD717 concentration after filtration through a 0.22 μm pore size PVDF filter was determined using HPLC.

[3] = Solubility in saline solutions at different NaCl concentrations; type: physicochemical; conditions: NaCl 2, 5, 10, 20, 100 and 165 mM (FIG. 2)
Experimental: To obtain a greater insight on the sensitivity of the solubility for sodium and chloride ions, the solubility of TCD717 was tested in saline solutions at NaCl concentrations of 2, 5, 10, 20, 100 and 165 mM NaCl.

[4] = Solubility testing in lipophilic and amphiphilic vehicles; type: physicochemical
Experimental: The solubility of TCD717 was determined in selected vehicles. […] The undissolved fraction of TCD717 was separated by filtration through a 0.22 μm pore size PVDF filter, and the filtrate was diluted before analyzing the TCD717 content by HPLC.

[5] = Solubility in simulated biological media and dilution media; type: physicochemical; conditions: for Solubility of TCD717: 24 h stirring, room temperature
[6] = type: physicochemical
Experimental: The solubility of solid TCD717 at room temperature in prototype vehicles suitable for intravenous formulation and the behavior after five-fold dilution with 0.9% NaCl solutions was tested. Formulations were prepared by dissolving the components in water at the indicated concentration.

In the case of CN(c1ccc(Cl)cc1)c1cc[n+](Cc2ccc(-c3ccc(C[n+]4ccc(N(C)c5ccc(Cl)cc5)c5ccccc54)cc3)cc2)c2ccccc12.[Br-].[Br-] [TCD717], the “Observation (chemical stability)” value ([1]; MeOH/water 3:1 v/v, 0.1M HCl/1 day) is reported as “No degradation observed”, the “Observation (chemical stability), degradation” value ([1]; MeOH/water 3:1 v/v, 0.1M NaOH/1 day) is reported as “Some degradation (~6%)” and the “Observation (chemical stability)” value ([1]; MeOH/water 3:1 v/v, 3% H2O2 + 0.1M HCl) is reported as “Complete degradation”. For the same compound, the “Observation (chemical stability)” value ([1]; MeOH/water 3:1 v/v, 3% H2O2 + 0.1M NaOH) was “Complete degradation”, the “Observation (chemical stability)” value ([1]; MeOH/water 3:1 v/v, 3% H2O2/1 day) was “No degradation observed” and the Stability ([1]; combinations of acidic/oxidizing and basic/oxidizing conditions) was “very unstable”. The Stability ([1]; under basic conditions) was “only moderately stable”, the “TCD717 concentration (solubility)” value ([2]; Boron acid/HCl/NaOH 110 mM (Tritrisol), buffer pH 8) was 3 µg/mL and the “TCD717 concentration (solubility)” value ([2]; Citrate/HCl 30 mM (Tritrisol), buffer pH 2) was 45 µg/mL. For the same compound, the “TCD717 concentration (solubility)” value ([2]; Citrate/HCl 40 mM (Tritrisol), buffer pH 3) was 32 µg/mL, the “TCD717 concentration (solubility)” value ([2]; Citrate/HCl 56 mM (Tritrisol), buffer pH 4) was 8 µg/mL and the “TCD717 concentration (solubility)” value ([2]; Citrate/NaOH 60 mM (Tritrisol), buffer pH 6) was 62 µg/mL. The “TCD717 concentration (solubility)” value ([2]; Citrate/NaOH 96 mM (Tritrisol), buffer pH 5) was 6 µg/mL, the “TCD717 concentration (solubility)” value ([2]; Phosphate (K + Na+) 67 mM (Tritrisol), buffer pH 7) was 860 µg/mL and the “TCD717 concentration (solubility)” value ([2]; Water, suspended at 5 mg/ml) was 200 µg/mL. The “Aqueous solubility as a function of NaCl concentration” value [3] was “decreases at NaCl concentrations above 20 mM”, the Solubility ([4]; Cremophor EL35, at least 24 h at 45° C.) was 0.78 mg/g and the Solubility ([4]; Miglyol 812, at least 24 h at 45° C.) was 0.002 mg/g. The Solubility ([4]; Solutol HS15, at least 24 h at 45° C.) was 2.3 mg/g, the Affinity for detergents ([4]; Solutol HS 15 and Tween 80) was “low affinity” and the Solubility ([4]; Soya oil, at least 24 h at 45° C.) was 0.015 mg/g. For the same compound, the Solubility ([4]; Tween 80, at least 24 h at 45° C.) was 3.1 mg/g, the Solubility ([4]; soy oil and Miglyol) was “very low” and the “Solubility of TCD717” value ([5]; Glucose 5% (w/v)) was 260 µg/mL. For the same compound, the “Solubility of TCD717” value ([5]; Human Serum Albumin 2% (w/v)) was 275 µg/mL, the “Solubility of TCD717” value ([5]; Saline 0.9% (w/v)) was 9 µg/mL and the “Solubility of TCD717” value ([5]; Water) was 200 µg/mL. The “Solubility in aqueous NaCl 0.9%” value ([5]; aqueous NaCl 0.9%) was 9 µg/mL, the Solubility in water ([5]; water at 25° C.) was 200 µg/mL and the “Solubilization potential of the solubilizing agent for TCD717” value [6] was “highest solubilization potential”. The Precipitation after dilution ([6]; HP-β-CD composition, five-fold dilution with 0.9% NaCl solutions) was “no precipitation”.
